Experimental data reported in patent US6630478B2, “Methods for treatment of drug-induced peripheral neuropathy” (NeoTherapeutics, Inc., priority 2000, dated 2003).
Entries after “also recorded” stand apart in the source; their conditions may differ.

What was measured:
neurotrophin 3 (NT-3) = conditions: rat astrocyte cultures; cited from earlier work
[1] = tested on: gastrocnemius muscle after stimulation of the sciatic nerve; test: Vincristine-induced neuropathy, EMG amplitude (compound muscle action potential); assay type: in vivo, Dark Agouti rats
Protocol: (§1) Animals received vincristine 0.15 mg/ml (IP) per day with the following timing: 5 days of intoxication followed with 2 days without vincristine injection and a new period of 5 days of intox followed with 2 days no intoxication and 2 other days of intoxication with vincristine followed by a 3 week recovery period. The test compound was administered daily from the first day of vincristine injection to the end of the experiments
(§2) Subjects used were 65 female Dark Agouti rats (200-250 g) (n=13 per group). Five groups were used: (1) a vehicle control group; (2) a vincristine-vehicle group;: (3) a vicristine+AIT-082 3 mg/kg IP group; (4) a vicristine+AIT-082 10 mg/kg IP group; and (5) a vicristine+AIT-082 30 mg/kg IP group.
(§3) Electrophysiological Measurements. Electrophysiological recordings were performed once a week using a Neuromatic 2000M electromyographical apparatus (Dantec, France). EMG were performed under Ketamine anesthesia (Imalgène 500®, Merieux, France).
(§4) The measured parameters were: the sensitive nerve conduction velocity (SNCV), the amplitude and the latency compound muscle action potential (CMAP).
Compound Muscle Action Potential and Distal Latency. CPAM was measured in gastrocnemius muscle after stimulation of the sciatic nerve. […] The amplitude (mV) and the latency of the response (ms) are measured. […]

NGF [2] = conditions: rat astrocyte cultures; cited from earlier work
BDNF = BDNF content in spinal cord by ELISA; assay type: in vivo, rat; conditions: in drinking water for 7 days
Protocol: In vivo Effects on Expression and Secretion of Nerve Growth Factors: In attempt to further explore the effects of AIT-082 that could be beneficial for chemotherapy-induced neuropathy, additional studies were conducted on dose-related effects on BDNF levels in the spinal cord. In these studies, AIT-082 was administered in drinking water for 7 days and BDNF content was measured by ELISA assay.

sciatic nerve = test: Vincristine-induced neuropathy, morphometric analysis of sciatic nerve; assay type: in vivo, Dark Agouti rats; conditions: end of the treatment periods
Protocol: as §1, §2
Morphometric Analysis. The morphometric analysis was performed on 3 animals per group on sciatic nerve. It includes the measurements of various parameters according to the following procedure: […]
(3) Morphometric analysis: Sections were observed using an optical microscope (Nikon) and morphometric analysis were performed with a semi-automated digital image analysis software (Morphonerf, Alcatel). Per slice, 4 fields were analyzed, the number of myelinated fibers, density of fibers, diameter of fibers, thickness of myelin sheath, surface of myelin sheath and G factor.

TGF = conditions: astrocytes; cited from earlier work
NGF [3] = conditions: astrocytes; cited from earlier work
NGF [4] = test: Endogenous NGF levels in skin; parameters: species or system adult rats; conditions: rat, in vivo
Source text: (§5) More specifically, as detailed below in the Example, systematically administered AIT-082 closely mimics the effects both of increased levels of endogenous NGF, and of exogenous NGF. […] The growth of such nerve tissue is evoked and maintained entirely by the increased levels of NGF in adjacent denervated skin.

[5] = Clinical trials, safety in patients; assay type: in vivo; conditions: over 1400 patients
Source text: The objectives of the studies described in this application are to evaluate AIT-082 and related analogues for their potential utility in the treatment of neuropathies associated with oncolytic therapies. The prototypic compound, AIT-082, is currently in Phase 2 clinical trials for Alzheimer's disease (AD) and has been proven safe in over 1400 patients. Its preclinical pharmacological effects include neuroprotection against excitotoxicity, induction of the synthesis and secretion of neurotrophic and pleiotrophic factors, neuroregenerative effects and proliferative effects on neural progenitor cells. The effects of AIT-082 are unlike any product that has been approved or is currently under evaluation for neuropathies associated with oncolytic agents. AIT-082 and its second generation analogues may arrest or retard neurodegenerative processes, promote neuroregeneration and provide symptomatic relief for cancer patients with neuropathies or at high risk of developing neuropathies.

axonal regeneration = test: Axonal regeneration after nerve crush; conditions: in vivo
Source text: as §5

S 100 = conditions: astrocytes; cited from earlier work
[6] = tested on: peripheral nerve sprouting in the skin; test: Peripheral (collateral) nerve sprouting in the skin; assay type: in vivo; conditions: systemically administered, skin of adult rats
Source text: (§6) The growth of such nerve tissue is evoked and maintained entirely by the increased levels of NGF in adjacent denervated skin.

[7] = Induction of hyperalgesia; parameters: species or system adult rats; conditions: rat, in vivo
Source text: as §6

[8] = tested on: dorsal root ganglion neurons; test: Cisplatin toxicity in cultured dorsal root ganglion neurons, survival rate by acid phosphatase activity; assay type: cell-based, rat
Protocol: The dorsal root ganglion neurons were obtained from rat fetuses (Wistar rats; E15; Elevage Janvier, Le Genest St Isle). They were dissected and incubated in trypsin 1× (Gibco; Life Technologies, Cergy-Pontoise, France) for 30 min at 37° C. The reaction was stopped by addition of free Hanks balanced salt solution containing calcium and magnesium; (HBSS^+; Gibco) added with 10% of fetal bovine serum (FBS; Gibco) and 0.5 mg/ml DNAse I (Boehringer Mannheim, Meylan, France). The suspension was triturated with a 10-ml pipette and using a needle seringe. After centrifugation, the dissociated cells were resuspended in DMEM containing 10% FBS, 2% of chick embryos extract (Gibco), 1% antibiotics (Gibco) and NGF (Tebu, Le Perray en Yvelines, France) 3 ng/ml final.
Viable cells were counted and seeded at ±50,000 cells /well in 96 well-plates (Nunclon, Life Technologies) coated with poly-L-lysine (0.01 mg/ml, Sigma). Cells were maintained in a humidified incubator at 37° C. in 5% CO2-95% air atmosphere.
After 24 h, the culture medium was completed with anti-mitotic compounds (5-fluoro-5′-deoxyuridine and cytosine β-D-arabinofuranoside) and uridine all 10^−5M final. This treatment is aimed at eliminating contaminating fibroblasts and inhibiting the proliferation of Schwann cells.
Cultures were rinsed 48 hrs later (medium without any growth factors) and medium was replaced with fresh medium (200 μl /well) containing cisplatin (3.5 ng/ml; Sigma) added or not with the reference or test compounds.
After 48 h of intoxication, survival rates were measured using an acid phosphatase enzymatic activity assay.
Acid phosphatase activity was measured according to a previously described method (Ueda et al.; 1994). After removal of the culture medium, wells were rinsed twice with PBS (Life Technologies) and incubated with 100 μl of buffer containing 0.1 M sodium acetate (pH5.5), 0.1% Triton X100 (Sigma) and 10 mM p-nitrophenyl phosphate (Sigma) 1 h at 37° C./5% CO2. Reaction was stopped by addition of 10 μl of 1N NaOH (LPCR, Strasbourg, France). Enzyme activity was measured at 405 nm in a microplate reader (Labsystem, France).
Acid phosphatase activity is proportional to the amount of living cells. The results were expressed as percentage O.D. as compared to control conditions (same rinsing and medium replacements, but no intoxication and no treatment with either NGF, riluzol or the test compounds).

[9] = tested on: basic fibroblast growth factor (bFGF); conditions: rat astrocyte cultures; cited from earlier work
Caudal nerve = test: Vincristine-induced neuropathy, sensitive nerve conduction velocity (SNCV); assay type: in vivo, Dark Agouti rats
Protocol: as §1, §2, §3, §4
Sensitive Nerve Conduction Velocity. Skin electrodes were used. Caudal nerve was stimulated with a series of 20 pulses during 0.2 ms at a supramaximal intensity. The mean of 20 stimulations is included for statistical analysis.
Drug Administration. The test compound was administered daily by the i.p. route from the first day of intoxication with the vincristine to the end of the experiments.

[10] = Vincristine intoxication in rats, body weight; assay type: in vivo, Dark Agouti rats; conditions: repetitive dosing IP, days 11-19 and 22-31; FIG. 2
Protocol: Animals received vincristine 0.15 mg/ml (IP) per day with the following timing: 5 days of intoxication followed with 2 days without vincristine injection and a new period of 5 days of intox followed with 2 days no intoxication and 2 other days of intoxication with vincristine followed by a 3 week recovery period. The test compound was administered daily from the first day of vincristine injection to the end of the experiments Subjects used were 65 female Dark Agouti rats (200-250 g) (n=13 per group). Five groups were used: (1) a vehicle control group; […] (3) a […]-082 3 mg/kg IP group; (4) a […]-082 10 mg/kg IP group; and (5) a […]-082 30 mg/kg IP group. Behavioral Measurements. The general health and weight of animals were checked every day. Sensorimotor tests were performed twice a week during 6 week study, starting one week before beginning of intoxication (baseline). Drug Administration. The test compound was administered daily by the i.p. route from the first day of intoxication with the vincristine to the end of the experiments.

[11] = prevention of cisplatin toxicity in DRG cells

## O=C(CCn1cnc2c(=O)[nH]cnc21)Nc1ccc(C(=O)O)cc1 [AIT-082, N-4-carboxyphenyl-3-(6-oxohydropurin-9-yl) propanamide]
Neurotrophin 3 (NT-3)
  production of NT-3 mRNA: increases the production of mRNAs
[1]; days 17 and 23 (intoxication phase), days 31 and 38 (recovery phase), 3-30 mg/kg IP
  EMG amplitude: significant and dose-related changes
[1]; discussion summary
  severity of vincristine induced changes in electromyographic responses: reduced the severity
NGF [2]
  production of NGF mRNA: increases the production of mRNAs
BDNF
  BDNF levels in the spinal cord: significant dose-related increases
Sciatic nerve
  number of myelinated nerve fibers in sciatic nerve biopsies versus vincristine alone: greater numbers of myelinated nerve fibers
TGF
  secretion of TGF into the culture medium: enhanced the secretion
NGF [3]
  secretion of NGF into the culture medium: enhanced the secretion
NGF [4]
  endogenous NGF levels in skin: up-regulation
[5]
  safety in patients: proven safe
Axonal regeneration
  axonal regeneration after nerve crush: no effect
S 100
  secretion of S 100 into the culture medium: enhanced the secretion
[6]
  peripheral / collateral nerve sprouting: induce peripheral nerve sprouting; also recorded: induces vigorous collateral sprouting
[7]
  hyperalgesia: without the induction of hyperalgesia; also recorded: did not induce hyperalgesia
[8]; 1 μM, cisplatin intoxication 48 h, FIG. 1
  survival compared to cisplatin alone: significantly increased survival
[8]; doses higher than 1 μM
  effect on survival at higher doses: diminished progressively
[8]; in vitro model, discussion summary
  protection against cisplatin induced neurotoxicity: statistically significant protection
[8]; [11]
  effect compared with 5 ng/ml of NGF: greater effect
  potency relative to riluzole: 10 times
[9]
  production of bFGF mRNA: increases the production of mRNAs
Caudal nerve; day 17 (intoxication phase) and day 31 (recovery phase), 3-30 mg/kg IP
  sensory nerve conduction velocity: significant and dose-related changes
Caudal nerve; discussion summary
  severity of vincristine induced changes in sensory nerve conduction velocity: reduced the severity
Caudal nerve; discussion summary, SNCV and electromyographic responses
  rate of recovery after the termination of vincristine therapy: improved the rate of recovery

## O=C(CCn1cnc2c(=O)[nH]cnc21)NCCCN1CCCC1=O [AIT-034]
[8]; all concentrations (0.01-100 μM)
  effect on survival: ineffective

## CC[C@]1(O)C[C@H]2CN(CCc3c([nH]c4ccccc34)[C@@](C(=O)OC)(c3cc4c(cc3OC)N(C=O)[C@H]3[C@@](O)(C(=O)OC)[C@H](OC(C)=O)[C@]5(CC)C=CCN6CC[C@]43[C@@H]65)C2)C1 [Vincristine, vincristine]
[10]
  body weight compared to day matched vehicle controls: significant reductions in body weight
